Assay [1] relates to c-MYC (DNA, G4) TGAGGGTGGGTAGGGTGGGTAA
Description: ITC. As to conditions: 20 mM KCl; 10 mM KH2PO4, pH 7.0, 25 °C; ~20 µM DNA; up to 8 equivalents; Kb and n not determinable.

The test system of assay [2] is c-KIT2 (DNA, G4) CGGGCGGGCGCTAGGGAGGGT
Briefly: 1H-NMR titration. As to conditions: 20 mM KCl; 10 mM KH2PO4, pH 7.0, 25 °C; 0.2 mM DNA; up to 8 equivalents; shifts up to ~50 Hz, 5′ G-quartet.

Assay [3] shares this test system. Description: ITC. The note with it: 20 mM KCl; 10 mM KH2PO4, pH 7.0, 25 °C; ~20 µM DNA; up to 8 equivalents; Kb and n not determinable.
The subject of assay [4] is dsDNA duplex (DNA, duplex) GTAACTAGTTAACGATC/GATCGTTAACTAGTTAC
Description: 1H-NMR titration. As to conditions: 20 mM KCl; 10 mM KH2PO4, pH 7.0, 25 °C; 0.2 mM DNA; up to 4 equivalents; no shifts.

In assay [5] the test system is mutTel24 (DNA, G4) TTGGGTTAGGGTTAGGGTTAGGGA
Briefly: 1H-NMR titration. As to conditions: 20 mM KCl; 10 mM KH2PO4, pH 7.0, 25 °C; 0.2 mM DNA; up to 4 equivalents; no shifts.

Assay [6] has as its system c-MYC (DNA, G4) TGAGGGTGGGTAGGGTGGGTAA
Briefly: 1H-NMR titration. As to conditions: 20 mM KCl; 10 mM KH2PO4, pH 7.0, 25 °C; 0.2 mM DNA; up to 8 equivalents; shifts up to ~70 Hz, mainly 3′ G-quartet.

With `CC[C@]1(O)C[C@H]2CN(CCc3c([nH]c4ccccc34)[C@@](C(=O)OC)(c3cc4c(cc3OC)N(C=O)[C@H]3[C@@](O)(C(=O)OC)[C@H](OC(C)=O)[C@]5(CC)C=CCN6CC[C@]43[C@@H]65)C2)C1`, the “ΔH°” value in assay [1] is −11.7 ± 2.0 kJmol^−1; in assay [3] it was −52.8 ± 5.8 kJmol^−1. Further, the binding entry in assay [2] is “weak”; in assay [4], “no”; in assay [5], “no”; in assay [6], “weak”.

The values are drawn from article PMC12524732 (2025).
